According to patent publication US20140023715A1, “POLYMER CONJUGATES TARGETING CELLS AND METHODS RELATED THERETO” (EMORY UNIVERSITY, priority 2011, published 2014):

Columns and labels:
[1] = test system: MIA PaCa-2 cells; assay: Cell proliferation, Crystal violet assay, 96 h; assay type: cell-based; settings: Homo sapiens
[2] = test system: MIA PaCa-2 orthotopic pancreatic tumor; assay: Tumor growth inhibition in mice bearing orthotopic MIA PaCa-2 pancreatic cancer; assay type: in vivo; settings: i.v., gemcitabine-equivalent 2 mg/kg, five times
Method: (a) Mean tumor weight (blue bar) of non-, gemcitabine-, Gem-IONP, and ATF-Gem-IONPs treated MIA PaCa-2 bearing mice and individual weight distribution in every group (various symbols). Mice were given by i.v. injection of gemcitabine-equivalent dose of 2 mg/kg five times at 3- or 4-day intervals. At the end of the experimental period, tumor tissues were isolated and weighed. Values represent mean±S.D. for 16 mice. *Statistically significant difference vs. control, p<0.0001. **Statistically significant difference vs. gemcitabine and […] groups, p<0.05. (b) Representative tumor images of each group after dissection.
The tumor growth inhibition effect of ATF-Gem-IONPs was studied using female mice bearing orthotopical pancreatic cancer from an uPAR positive human pancreatic cancer cell line, MIA PaCa-2. NPs were administered five times at twice a week and the dose of ATF-Gem-IONPs was calculated based on gemcitabine-equivalence. Tumors were weighed at the end of the experiment, and average tumor weight was compared between groups (FIG. 4A). All of treated groups inhibited tumor growth compared to non-treated control group. […] Tumor weights agreed well tumor volumes results (FIG. 4B).

IC50 ([1]; gemcitabine-equivalent): 498 nM
Structure (SMILES): Nc1ccn([C@@H]2O[C@H](CO)[C@@H](O)C2(F)F)c(=O)n1 [gemcitabine]
viability at 1 µM ([1]; gemcitabine equivalent concentration of 1 μM): 39%
tumor growth inhibition compared to non-treated control (tumor weight) [2]: 30%
